pIC50: −log10 of the molar value. In brackets after ≈: the same amount, converted by molar mass. Read-outs that look alike come from different tables or passages of the source.
Legend:
S. aureus Smith = experiment: Antibacterial activity (MIC), S. aureus; assay type: cell-based; conditions: Staphylococcus aureus
Excerpt: (§1) As used herein, a minimum inhibitory concentration (MIC) for bacterial growth assay is the lowest level of a compound needed to cause an inhibition to bacterial growth in culture medium. In certain embodiments, the antibacterial activity of compounds herein, measured as MIC.
(§2) In certain embodiments, GSK3 inhibitors provided herein are substantially free of antibacterial activity or having very low antibacterial activity. The antibacterial activity can be measured by methods known in the art by estimating a minimum inhibitory concentration (MIC) for test compounds. A MIC is the lowest level of a compound needed to cause an inhibition to bacterial growth in a culture medium. […] (Clinical and Laboratory Standards Institute. Methods for Dilution Antimicrobial Susceptibility Tests for Bacteria That Grow Aerobically; Approved Standard-Sixth Edition: CLSI document […]. CLSI, Wayne, Pa. (2003))
(§3) Antibacterial activity for E. coli, ATCC8739 andS. aureus Smith expressed as MIC (μM) is provided as follows: […]

E. coli, ATCC8739 = experiment: Antibacterial activity (MIC), E. coli; assay type: cell-based; conditions: Escherichia coli
Excerpt: as §1, §2, §3

[1] = target: T1, recombinant full-length human GSK3β (Homo sapiens, UniProt P49841); experiment: Luciferase-coupled cell-free GSK3β kinase assay; assay type: biochemical
T1 construct: recombinant full-length human GSK3β (Upstate); purchased Upstate
T1 sequence (P49841 whole entry): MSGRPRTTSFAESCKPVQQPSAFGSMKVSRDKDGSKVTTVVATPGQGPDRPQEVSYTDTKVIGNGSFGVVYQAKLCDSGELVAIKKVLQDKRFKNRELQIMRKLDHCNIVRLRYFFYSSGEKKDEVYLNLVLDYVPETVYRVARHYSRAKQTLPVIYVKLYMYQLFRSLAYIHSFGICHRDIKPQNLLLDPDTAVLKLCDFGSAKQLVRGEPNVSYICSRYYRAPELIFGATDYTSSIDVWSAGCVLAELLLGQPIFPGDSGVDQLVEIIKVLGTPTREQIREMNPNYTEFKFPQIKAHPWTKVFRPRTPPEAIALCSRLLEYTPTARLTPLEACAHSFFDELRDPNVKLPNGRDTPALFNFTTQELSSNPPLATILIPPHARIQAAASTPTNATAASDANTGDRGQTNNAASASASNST
Procedure: For compounds in Tables 1 and 2, IC50 (μM) for GSK3β enzyme in cell free assay is provided as follows:
Luciferase-Coupled Protein Kinase Assays
All coupled-luciferase assays are performed by using a brief incubation with firefly luciferase (Promega) after completion of the kinase assay. KinaseGlo Plus is used for reading kinase reactions with ATP>10 μM, KinaseGlo for ATP <10 μM. The assay volume in a 384-well plate for the kinase reaction is 30 microliters.
10-25 ng of recombinant full-length human GSK3β (Upstate) is incubated in the presence or absence of compound at varying concentrations for 1 hour at 30 degrees Celsius in 20 mM MOPS, pH 7.0, 10 mM magnesium acetate, 0.2 mM EDTA, 2 mM EGTA, 30 mM magnesium chloride, 62.5 μM phospho-glycogen synthase peptide-2, 5 μM ATP, 10 mM β-glycerol phosphate, 1 mM sodium orthovanadate and 1 mM dithiothreitol. Proceed to KinaseGlo luciferase reaction (see below).
Following the completion of the kinase reaction an equal volume of KinaseGlo or KinaseGlo Plus luciferase reagent (Promega) is added and the luminescence read using a luminescence plate reader within 5-10 minutes. Compound activity is expressed as % inhibition relative to maximal inhibition observed at the maximal dose and IC50 values then calculated using curve fitting software (GraphPad Prizm).

[2] = Table 2, S. aureus Smith, read-out: Antimicrobial MIC [μM] S. aureus
[3] = ATCC8739, Table 2, E. coli ATCC8739, read-out: Antimicrobial MIC [μM] E. Coli
[4] = Table 1, read-out: Antibacterial MIC (μM) S. aureus Smith
[5] = ATCC8739, Table 1, E. coli ATCC8739, read-out: Antibacterial MIC (μM) E.Coli

Row | Compound | MIC (S. aureus Smith; [2]) | MIC (E. coli, ATCC8739; [3]) | pIC50 ([1]; Table 2) | MIC (S. aureus Smith; [4]) | MIC (E. coli, ATCC8739; [5]) | pIC50 ([1]; Table 1) | MIC (S. aureus Smith; read-out: Antibacterial MIC (μM) S. aureus Smith) | MIC (E. coli, ATCC8739; ATCC8739, read-out: Antibacterial MIC (μM) E.Coli)
1 | CC1COc2c(NCCNc3cc(F)cc(F)n3)c(F)c(N)c3c(=O)c(C(=O)O)cn1c23 (stereo not drawn) [compound 15] | 0.5 to 10 µM (≈ 0.225 to 4.49 µg/mL) | 0.5 to 10 µM (≈ 0.225 to 4.49 µg/mL) | > 7.00 |  |  |  |  | 
2 | Nc1c(F)c(NCCNc2ccccn2)c(F)c2c1c(=O)ccn2C1CC1 [compound 15] |  |  |  | > 50 µM | > 50 µM | 6.30 to 7.00 |  | 
3 | CC1(C)COc2c(NCCNc3ccccn3)c(F)c(N)c3c(=O)c(C(=O)O)cn1c23 [compound 16] | > 50 µM | > 50 µM | > 7.00 |  |  |  |  | 
4 | Nc1c(F)c(NCCc2ccc(O)cc2)c(F)c2c1c(=O)c(C(=O)O)cn2C1CC1 [compound 16] |  |  |  | < 0.5 µM | 0.5 to 10 µM (≈ 0.208 to 4.15 µg/mL) | 6.00 to 6.30 |  | 
5 | CC(C)OCCCNc1c(F)c(N)c2c(=O)c(C(=O)O)cn(C3CC3)c2c1F [compound 17] |  |  |  |  |  | 6.30 to 7.00 | 0.5 to 10 µM (≈ 0.198 to 3.95 µg/mL) | 0.5 to 10 µM (≈ 0.198 to 3.95 µg/mL)
6 | C[C@H]1COc2c(NCCCn3cnc4ccccc43)c(F)c(N)c3c(=O)c(C(=O)O)cn1c23 [compound 19] | 0.5 to 10 µM (≈ 0.226 to 4.51 µg/mL) | 10 to 50 µM (≈ 4.51 to 22.6 µg/mL) | > 7.00 |  |  |  |  | 
7 | Nc1c(F)c(NCCc2ccc(F)cc2F)c(F)c2c1c(=O)c(C(=O)O)cn2C1CC1 [compound 19] |  |  |  | 0.5 to 10 µM (≈ 0.218 to 4.35 µg/mL) | 0.5 to 10 µM (≈ 0.218 to 4.35 µg/mL) | 6.30 to 7.00 |  | 
8 | C[C@H]1COc2c(NCCCn3ccnc3)c(F)c(N)c3c(=O)c(C(=O)O)cn1c23 [compound 20] | 0.5 to 10 µM (≈ 0.201 to 4.01 µg/mL) | 10 to 50 µM (≈ 4.01 to 20.1 µg/mL) | 6.30 to 7.00 |  |  |  |  | 
9 | Nc1c(F)c(NCCCCc2ccccc2)c(F)c2c1c(=O)c(C(=O)O)cn2C1CC1 [compound 20] |  |  |  | 0.5 to 10 µM (≈ 0.214 to 4.27 µg/mL) | 10 to 50 µM (≈ 4.27 to 21.4 µg/mL) | 6.30 to 7.00 |  | 
10 | CC(C)(C)OC(=O)NCCNc1c(F)c(N)c2c(=O)c(C(=O)O)cn(C3CC3)c2c1F [compound 21] |  |  |  | 0.5 to 10 µM (≈ 0.219 to 4.38 µg/mL) | 0.5 to 10 µM (≈ 0.219 to 4.38 µg/mL) | 6.00 to 6.30 |  | 
11 | CC(C)OCCCNc1c(F)c(N)c2c(=O)c(C(=O)O)cn3c2c1OC[C@@H]3C [compound 21] | 0.5 to 10 µM (≈ 0.197 to 3.93 µg/mL) | > 50 µM | 6.30 to 7.00 |  |  |  |  | 
12 | C[C@@H]1COc2c(NCCNc3ccccn3)c(F)c(N)c3c(=O)c(C(=O)O)cn1c23 [compound 30] | > 50 µM | > 50 µM | 6.00 to 6.30 |  |  |  |  | 

Further lines, with some results ahead:

Row | MIC (S. aureus Smith; [2]) | MIC (E. coli, ATCC8739; [3]) | pIC50 ([1]; Table 2) | MIC (S. aureus Smith; [4]) | MIC (E. coli, ATCC8739; [5]) | pIC50 ([1]; Table 1) | Compound | MIC (S. aureus Smith; read-out: Antibacterial MIC (μM) S. aureus Smith) | MIC (E. coli, ATCC8739; ATCC8739, read-out: Antibacterial MIC (μM) E.Coli)
13 | 0.5 to 10 µM (≈ 0.209 to 4.18 µg/mL) | 0.5 to 10 µM (≈ 0.209 to 4.18 µg/mL) | 6.30 to 7.00 |  |  |  | C[C@H]1COc2c(NCCCN3CCCC3=O)c(F)c(N)c3c(=O)c(C(=O)O)cn1c23 [compound 23] |  | 
14 |  |  |  | 0.5 to 10 µM (≈ 0.202 to 4.03 µg/mL) | 0.5 to 10 µM (≈ 0.202 to 4.03 µg/mL) | > 7.00 | Nc1c(F)c(NCCCn2ccnc2)c(F)c2c1c(=O)c(C(=O)O)cn2C1CC1 [compound 23] |  | 
15 | 0.5 to 10 µM (≈ 0.221 to 4.41 µg/mL) | 0.5 to 10 µM (≈ 0.221 to 4.41 µg/mL) | 6.30 to 7.00 |  |  |  | CC1(C)COc2c(NCCNc3ccccn3)c(F)c(N)c3c(=O)c(C(=O)O)cn(c23)C1 [compound 24] |  | 
16 | 0.5 to 10 µM (≈ 0.22 to 4.39 µg/mL) | 0.5 to 10 µM (≈ 0.22 to 4.39 µg/mL) | > 7.00 |  |  |  | CC1(C)COc2c(NCCCc3ccccc3)c(F)c(N)c3c(=O)c(C(=O)O)cn(c23)C1 [compound 25] |  | 
17 | 10 to 50 µM (≈ 4.29 to 21.5 µg/mL) | 10 to 50 µM (≈ 4.29 to 21.5 µg/mL) | > 7.00 |  |  |  | CC1(C)COc2c(NCCCn3ccnc3)c(F)c(N)c3c(=O)c(C(=O)O)cn(c23)C1 [compound 26] |  | 
18 |  |  |  | > 50 µM | > 50 µM | 6.30 to 7.00 | Nc1c(F)c(NCCCn2ccnc2)c(F)c2c1c(=O)ccn2C1CC1 [compound 26] |  | 
19 |  |  |  | > 50 µM | > 50 µM | 6.30 to 7.00 | Nc1c(F)c(NCCc2c[nH]c3ccccc23)c(F)c2c1c(=O)ccn2C1CC1 [compound 28] |  | 
20 |  |  |  | > 50 µM | > 50 µM | 6.30 to 7.00 | CC(C)(C)OC(=O)NCCNc1c(F)c(N)c2c(=O)ccn(C3CC3)c2c1F [compound 29] |  | 
21 | 10 to 50 µM (≈ 4.51 to 22.6 µg/mL) | 10 to 50 µM (≈ 4.51 to 22.6 µg/mL) | 6.30 to 7.00 |  |  |  | C[C@@H]1COc2c(NCCCn3cnc4ccccc43)c(F)c(N)c3c(=O)c(C(=O)O)cn1c23 [compound 32] |  | 
22 | 10 to 50 µM (≈ 4.77 to 23.8 µg/mL) | 10 to 50 µM (≈ 4.77 to 23.8 µg/mL) | > 7.00 |  |  |  | CC1(C)COc2c(NCCNc3cccc4ccccc34)c(F)c(N)c3c(=O)c(C(=O)O)cn1c23 [compound 36] |  | 
23 | 0.5 to 10 µM (≈ 0.233 to 4.65 µg/mL) | 0.5 to 10 µM (≈ 0.233 to 4.65 µg/mL) | > 7.00 |  |  |  | CC1(C)COc2c(NCCCn3cnc4ccccc43)c(F)c(N)c3c(=O)c(C(=O)O)cn1c23 [compound 37] |  | 

Source: US8063221B2, “Aminoquinolones as GSK-3 inhibitors” (Kyorin Pharmaceutical Co., Ltd., priority 2006, dated 2011)
